Measurements taken from patent US6245734A (priority 1997, dated 2001).
In brackets after ≈: the same amount, converted by molar mass. Where two headings read alike, the source gives them in different places.

Tests used:
incubated cancer cells = conditions: cited from earlier work
BxPC-3 cell = conditions: 3 μg/ml adriamycin, from start of treatment; cited from earlier work
AsPC-1 cell = conditions: 30 μg/ml adriamycin; cited from earlier work
[1] = test system: spontaneously generated human solid cancer cells; conditions: cited from earlier work
[2] = test system: leukemia cells and experimental cancer cells artificially generated by carcinogen virus and the like; conditions: cited from earlier work
[3] = test system: Human pancreatic adenocarcinoma cells BxPC-3; assay: Cytocidal activity, Trypan Blue; assay type: cell-based; conditions: read-out: IC50 (concentration required to kill 50% of cells)
Description: (§1) Various cancer cells as shown in Table 1 below were incubated for 24 hours on such culture medium as shown in the table which contained polyoxypeptin or deoxypolyoxypeptin added at various concentrations. After staining with Trypan Blue, the number.of the dead cells was counted, and the concentration of polyoxypeptin or deoxypolyoxypeptin required to kill 50% of the total number of cells of the cancer cells under test, namely the value of IC50, was calculated therefrom.

[4] = test system: Human bibrosarcoma HT1080; assay: Cytocidal activity, Trypan Blue; assay type: cell-based; conditions: read-out: IC50 (concentration required to kill 50% of cells)
Description: as §1

[5] = test system: Rat fibroblast cell K-ras-NRK; assay: Cytocidal activity, Trypan Blue; assay type: cell-based; conditions: read-out: IC50 (concentration required to kill 50% of cells)
Description: as §1

[6] = test system: Mouse fibroblast cell RSV-NIH3T3 (src-transformed NIH3T3); assay: Cytocidal activity, Trypan Blue; assay type: cell-based; conditions: read-out: IC50 (concentration required to kill 50% of cells)
Description: as §1

[7] = test system: Human pancreatic adenocarcinoma cells Panc-1; assay: Cytocidal activity, Trypan Blue; assay type: cell-based; conditions: read-out: IC50 (concentration required to kill 50% of cells)
Description: as §1

[8] = test system: Human pancreatic adenocarcinoma cells AsPC-1; assay: Cytocidal activity, Trypan Blue; assay type: cell-based; conditions: read-out: IC50 (concentration required to kill 50% of cells)
Description: as §1

[9] = test system: Mouse fibroblast cell A4 (cerbB2-NIH3T3); assay: Cytocidal activity, Trypan Blue; assay type: cell-based; conditions: read-out: IC50 (concentration required to kill 50% of cells)
Description: as §1

[10] = test system: Mouse fibroblast cell NIH3T3; assay: Cytocidal activity, Trypan Blue; assay type: cell-based; conditions: read-out: IC50 (concentration required to kill 50% of cells)
Description: as §1

[11] = test system: Human T cell leukemia Jurkat; assay: Cytocidal activity, Trypan Blue; assay type: cell-based; conditions: read-out: IC50 (concentration required to kill 50% of cells)
Description: as §1

[12] = test system: Human uterus body cancer HHUA; assay: Cytocidal activity, Trypan Blue; assay type: cell-based; conditions: read-out: IC50 (concentration required to kill 50% of cells)
Description: as §1

Human epithelioma A431 = assay: Cytocidal activity, Trypan Blue; assay type: cell-based; conditions: read-out: IC50 (concentration required to kill 50% of cells)
Description: as §1

[13] = test system: Human promyeloleukemia HL-60; assay: Cytocidal activity, Trypan Blue; assay type: cell-based; conditions: read-out: IC50 (concentration required to kill 50% of cells)
Description: as §1

[14] = test system: Mouse fibroblast cell K-ras-NIH3T3; assay: Cytocidal activity, Trypan Blue; assay type: cell-based; conditions: read-out: IC50 (concentration required to kill 50% of cells)
Description: as §1

Rat fibroblast cell NRK = assay: Cytocidal activity, Trypan Blue; assay type: cell-based; conditions: read-out: IC50 (concentration required to kill 50% of cells)
Description: as §1

[15] = test system: Human chronic promyeloleukemia K562; assay: Cytocidal activity, Trypan Blue; assay type: cell-based; conditions: read-out: IC50 (concentration required to kill 50% of cells)
Description: as §1

[16] = test system: Human pancreatic adenocarcinoma cells PSN-1; assay: Cytocidal activity, Trypan Blue; assay type: cell-based; conditions: read-out: IC50 (concentration required to kill 50% of cells)
Description: as §1

Solubility = conditions: for Solubility in organic solvents: methanol, ethanol, aqueous ethanol, chloroform, ethyl acetate, acetone, (n-)butanol, acetonitrile, toluene, dimethylsulfoxide
Escherichia coli = assay: Antibacterial activity, serial dilution on Muller-Hinton agar; assay type: cell-based; conditions: gram-negative bacteria such as Escherichia coli
Description: Antibacterial spectra of polyoxypeptin and deoxypoly-oxypeptin against various microorganisms were determined on Muller-Hinton agar medium by a serial dilution method on the basis of the standard method of Japan Society of Chemotherapy.

AsPC-1 cells [17] = assay: Activity inhibitory to the proliferation of human pancreatic cancer cell AsPC-1 (MTT assay); assay type: cell-based; conditions: ASPC1, 48 h, read-out: IC50 (concentration at which proliferation of AsPC-1 cells was inhibited by 50%)
Description: A cell suspension of AsPC-1 cells suspended in an RPMI 1640 culture medium containing 10% FBS was prepared, and 100 μl-portion each of said cell suspension was placed in a 96-well plastic plate in a proportion of 3×10^3 cells/well. Each plate was then incubated at 37° C. under a 5% CO2 for 1 day. Subsequently, polyoxypeptin or deoxypolyoxypeptin was added to the liquid culture medium present in each well at a concentration of 1, 3, 10, 30 or 100 ng/ml of said compound. Then the incubation of the cells was effected for 2 days. Then, the number of cells was counted by MTT assay method.

mice = assay: Acute toxicity in mice, single intravenous injection; assay type: in vivo, mouse; conditions: administered once by intravenous injection
[18] = test system: other human solid cancer cells; assay: Apoptosis induction on other human solid cancer cells; assay type: cell-based
AsPC-1 cells [19] = assay: Apoptosis-inducing activity on human pancreatic cancer cell AsPC-1 (Trypan Blue); assay type: cell-based; conditions: for IC50: Homo sapiens, read-out: IC50 (concentration at which cell death by apoptosis is induced at 50% of total AsPC-1 cells); for time after drug treatment in which apoptosis was induced on AsPC-1 cells: after the drug treatment
Description: A cell suspension containing the AsPC-1 cells suspended in an RPMI 1640 culture medium containing 10% FBS was prepared, and 500 μl-portion each of the cell suspension was placed in a 24-well plastic plate in a proportion of 1×10^5 cells/well. The cell suspension was incubated at 37° C. under 5% CO2 for 1 day. The AsPC-1 cells adhered onto the bottom surface of each well. Subsequently, polyoxypeptin or deoxypolyoxypeptin was added to the liquid culture medium present in each well so as to give the substance under test at a concentration of 3, 100 or 300 μg/ml. The cells were incubated for 24 hours.
Immediately after the incubation for 24 hours, the supernatant liquid (500 μl) of the culture medium remaining in each well was removed from each well of said plastic plate and discarded. Then, the plastic plate was washed twice with a PBS buffer solution (each 300 μl), and the washings were discharged. Thereafter, a trypsin-EDTA buffer solution (200 μl) was added to said plastic plate, and the incubation was effected at 37° C. under CO2 -free condition so as to peel the cells off from the plate. The cells so peeled were transferred to an Eppendorf tube. The Eppendorf tube was centrifuged (2400 rpm, 10 minutes) to deposit the cells down, and the super-natant was removed and discarded. A fresh amount of the liquid culture medium was added to the cells. An 80 μl-portion of the resulting cell suspension as formed in said tube was taken into another Eppendorf tube, to which were then added 20 μl of Trypan Blue staining solution (containing 4 mg/ml of Trypan Blue and 9 mg/ml of NaCl). The cell suspension was taken out from the resulting mixture by a pipette, and the cell suspension so pipetted was placed on a hemocytometer (made by Elma Co.). The cell sample was observed under a microscope of 100 magnifications. The number of the dead cells as blue-colored amongst the cells under observation, and the total number of whole cells under observation were counted.
The survival rate (%) of the cells was calculated by an equation of 100-[(number of dead cells.div. total number of tested cells)×100].

COc1cccc2c1C(=O)c1c(O)c3c(c(O)c1C2=O)C[C@@](O)(C(=O)CO)C[C@@H]3O[C@H]1C[C@H](N)[C@H](O)[C@H](C)O1 [adriamycin]
apoptosis induction on some of incubated cancer cells (incubated cancer cells): have the activities of inducing the apoptosis
time within which apoptosis is induced on BxPC-3 cell (BxPC-3 cell): ≤ 24 h
apoptosis induction on AsPC-1 cell (AsPC-1 cell): does not induce apoptosis
apoptosis induction on many spontaneously generated human solid cancer cells [1]: does not induce apoptosis
apoptosis induction on leukemia cells and experimental cancer cells [2]: can have an activity of inducing the apoptosis

N.N.[Cl][Pt][Cl] [cisplatin]
apoptosis induction on some of incubated cancer cells (incubated cancer cells): have the activities of inducing the apoptosis
apoptosis induction on many spontaneously generated human solid cancer cells [1]: does not induce apoptosis
apoptosis induction on leukemia cells and experimental cancer cells [2]: can have an activity of inducing the apoptosis

CCC(C)CC1CCC(O)(C(C)(O)C(=O)NC2C(=O)N3NCCCC3C(=O)N(O)C(C)C(=O)N3NCCCC3C(=O)N3CCC(C)(O)C3C(=O)N(O)C(C(C)C)C(=O)OC2C(C)C)OC1CC (centres unmarked) [deoxypolyoxypeptin]
IC50 ([3]; BxPC-3, 24 hours, medium A): 0.03 µg/mL (≈ 0.0315 µM)
IC50 ([4]; HT-1080, HT1080, 24 hours, medium D): 0.02 µg/mL (≈ 0.021 µM)
IC50 ([5]; K-ras-NRK, 24 hours, medium C): 0.05 µg/mL (≈ 0.0525 µM)
IC50 ([6]; RSV-NIH3T3 (src-transformed NIH3T3), 24 hours, medium A): 0.06 µg/mL (≈ 0.0629 µM)
IC50 ([7]; Panc-1, 24 hours, medium A): 0.05 µg/mL (≈ 0.0525 µM)
IC50 ([8]; ASPC1, AsPC-1, 24 hours, medium A): 0.08 µg/mL (≈ 0.0839 µM)
IC50 ([9]; A4 (cerbB2-NIH3T3), 24 hours, medium A): 0.06 µg/mL (≈ 0.0629 µM)
IC50 ([10]; NIH3T3, 24 hours, medium A): 0.05 µg/mL (≈ 0.0525 µM)
IC50 ([11]; 24 hours, medium B): 0.05 µg/mL (≈ 0.0525 µM)
IC50 ([12]; HHUA, 24 hours, medium D): 0.05 µg/mL (≈ 0.0525 µM)
IC50 (Human epithelioma A431; A-431, A431, 24 hours, medium C): 0.03 µg/mL (≈ 0.0315 µM)
IC50 ([13]; HL-60, 24 hours, medium A): 0.04 µg/mL (≈ 0.042 µM)
IC50 ([14]; K-ras-NIH3T3, 24 hours, medium A): 0.1 µg/mL (≈ 0.105 µM)
IC50 (Rat fibroblast cell NRK; NRK, 24 hours, medium C): 0.18 µg/mL (≈ 0.189 µM)
IC50 ([15]; K562, 24 hours, medium A): 0.02 µg/mL (≈ 0.021 µM)
IC50 ([16]; PSN1, PSN-1, 24 hours, medium A): 0.01 µg/mL (≈ 0.0105 µM)
Solubility in organic solvents (Solubility): Soluble
Solubility in water (Solubility): hardly soluble
antibacterial activity against gram-negative bacteria (Escherichia coli): did not exhibit any antibacterial activity
IC50 (AsPC-1 cells [17]; 2 days incubation, MTT, RPMI 1640 with 10% FBS): 0.015 µg/mL (≈ 0.0157 µM)
LD50 (mice): 125 μg/mouse
apoptosis-inducing activity on other human solid cancer cells [18]: have also an activity of inducing apoptosis
IC50 (AsPC-1 cells [19]; ASPC1, 24 hours incubation, RPMI 1640 with 10% FBS): 0.08 µg/mL (≈ 0.0839 µM)
time after drug treatment in which apoptosis was induced on AsPC-1 cells (AsPC-1 cells [19]): approximately 24 hours

CCC(C)CC1CCC(O)(C(C)(O)C(=O)NC2C(=O)N3NCCCC3C(=O)N(O)C(C)C(=O)N3NCC(O)CC3C(=O)N3CCC(C)(O)C3C(=O)N(O)C(C(C)C)C(=O)OC2C(C)C)OC1CC (centres unmarked) [polyoxypeptin]
IC50 ([3]; BXPC-3, 24 h): 0.03 µg/mL (≈ 0.031 µM)
IC50 ([4]; HT-1080, 24 h): 0.02 µg/mL (≈ 0.0206 µM)
IC50 ([5]; 24 h): 0.05 µg/mL (≈ 0.0516 µM)
IC50 ([6]; NIH3T3, 24 h): 0.06 µg/mL (≈ 0.0619 µM)
IC50 ([7]; PANC-1, 24 h): 0.05 µg/mL (≈ 0.0516 µM)
IC50 ([8]; ASPC1, 24 h): 0.08 µg/mL (≈ 0.0825 µM)
IC50 ([9]; 24 h): 0.06 µg/mL (≈ 0.0619 µM)
IC50 ([10]; NIH3T3, 24 h): 0.05 µg/mL (≈ 0.0516 µM)
IC50 ([11]; 24 h): 0.05 µg/mL (≈ 0.0516 µM)
IC50 ([12]; 24 h): 0.05 µg/mL (≈ 0.0516 µM)
IC50 (Human epithelioma A431; A-431, 24 h): 0.03 µg/mL (≈ 0.031 µM)
IC50 ([13]; HL-60, 24 h): 0.04 µg/mL (≈ 0.0413 µM)
IC50 ([14]; 24 h): 0.1 µg/mL (≈ 0.103 µM)
IC50 (Rat fibroblast cell NRK; 24 h): 0.18 µg/mL (≈ 0.186 µM)
IC50 ([15]; K562, 24 h): 0.02 µg/mL (≈ 0.0206 µM)
IC50 ([16]; PSN1, 24 h): 0.01 µg/mL (≈ 0.0103 µM)
Solubility in organic solvents (Solubility): Soluble
Solubility in water (Solubility): hardly soluble
antibacterial activity against gram-negative bacteria (Escherichia coli): did not exhibit any antibacterial activity
IC50 (AsPC-1 cells [17]): 0.015 µg/mL (≈ 0.0155 µM)
LD50 (mice): 67.5 μg/mouse
apoptosis-inducing activity on other human solid cancer cells [18]: have also an activity of inducing apoptosis
IC50 (AsPC-1 cells [19]; ASPC1, 24 h): 0.08 µg/mL (≈ 0.0825 µM)
time after drug treatment in which apoptosis was induced on AsPC-1 cells (AsPC-1 cells [19]): approximately 24 hours
